One data set deals with HIV-1IIIB. The data set is described as follows: HIV-1 antiviral assay (CPE reduction, MTS). The following applies: peptide 10 micrograms per ml, 6 days post-infection. It counts as cell-based.
Data set [1] can be described thus: Cytotoxicity in CEM-SS cells (MTS cell viability). The following applies: human.
The next data set concerns Pseudomonas aeruginosa. It counts as cell-based. The following applies: 5 micrograms per ml.
A further data set deals with Streptococcus pneumoniae. It counts as cell-based. The note with it: 5 micrograms per ml.
The next data set is described as follows: in vitro. The note with it: human, HepG2-2.2.15 cells.
The test system of another data set is MRSA. The following applies: 5 micrograms per ml.
Data set [2] in a line: Cytotoxicity in MRC-5 cells (CellTiter 96). The following applies: human.

The term viability denotes a per cent measure of how many cells are alive, often set against a control. A high value points to less harm to the cells. What is called % inhibition is the percentage by which the read-out fell short of the control.

No end group written: not given here.

Protocol for in vitro: HepG2-2.2.15 cells were plated in 96-well microtiter plates. After 16-24 hours the confluent monolayer of HepG2-2.2.15 cells was washed and the medium was replaced with complete medium containing test peptide—10 micrograms per ml—in duplicate. […] Three days later the culture medium was replaced with fresh medium containing the peptide. […] A novel dye uptake assay was then employed to measure cell viability, which is used to calculate toxicity (% cell control).

Consider `Cc1cn([C@H]2C[C@H](N=[N+]=[N-])[C@@H](CO)O2)c(=O)[nH]c1=O` [AZT], for which the “% CPE reduction in HIV-1 infected CEM-SS cells” value in the data set with HIV-1IIIB amounted to 99%.

Consider SFLLRNPNDKYEPF-OH [TRAP-14], for which the viability at 10 micrograms per ml in data set [1] is 100%. Further, the “% inhibition” value with Pseudomonas aeruginosa, in the data set with Streptococcus pneumoniae and in the data set with MRSA was 0.0% in each case. In the data set “in vitro”, this molecule gave a viability at 144 h, 10 micrograms per ml of 84.5%. Also, in data set [2], the viability at 144 h was 100%.

These data come from patent US20100210559A1, “TRAP-14 AS A THERAPEUTIC AGENT” (priority 2007, published 2010).
